Measurements published in USRE47078E1, “Polymorphic forms of N-[4-(trifluoromethyl)benzyl]-4-methoxybutyramide” (Laboratorio Farmaceutico C.T. S.R.L., priority 2007, dated 2018).
≈ marks a conversion by molar mass, not a printed value. Where two headings read alike, the source gives them in different places.

What was measured:
[1] = Solubility of the polymorphs at different pH (HPLC assay); format: physicochemical; settings: for solubility at 24 h / solubility at 30 min: thermodynamic from solid; for solubility at 24 h: read-out: Solubility, After 24 hours; for solubility at 30 min: read-out: Solubility, Initial evaluation
Protocol: Both samples of powder (Form A and Form B) were used in order to evaluate the solubility properties of the two polymorphs at different pH.
The two samples were tested in the following pH conditions: • Hydrochloric acid buffer at pH=1.2 • Acetic acid at pH=3.0 • Phosphate buffer at pH=3.0 • Phosphate buffer at pH=4.6 • Phosphate buffer at pH=6.0 • Phosphate buffer at pH=7.4 • Alkaline phosphate buffer at pH=8.0
0.5 g of each samples were dissolved in a glass flask using 100 ml of the appropriate buffer. The two samples were then kept under stirring for 30 minutes. If the samples were completed dissolved, 1 additional gram was added in the flask and stirred for 30 minutes. The procedure was repeated till the presence of undissolved product in the bottom of the flask. After such a dissolution procedure, the samples were stored for 24 hours and then the dissolved amounts of Form A and Form B, respectively, were determined by HPLC assay.

[2] = system: Sardinian Alcohol preferring rats (sP); test: Alcohol Deprivation Effect in deprived sP rats; format: in vivo, rat
Protocol: Tests were carried out in Sardinian Alcohol preferring rats (sP), i.e. a rodent line genetically selected for their spontaneous alcohol consume. These animals were adopted as the main specific animal model in the research program due to the fact that these rats (kept in a free-choice regimen between water and a 10% ethanol solution) consume large amounts of alcohol (6-7 g/Kg/day), sharing a great preference for […] (80-100%).
Under the standard, these rats are subjected to homecage two-bottle free choice regimen between 10% alcohol and water with unlimited access (24 h/day) and they show these features: daily intake of about 6 g/Kg of alcohol; preference ratio (alcohol solution vs total fluids) above 80%; fractioning of daily alcohol intake in 3-4 binges; achievement of BALs (Blood Alcohol Levels) above 50 mg % at each binge; induction of pharmaceutical effects (anxiolysis, motor stimulation) and regulation by a central, hedonic set-point mechanism.
2. Alcohol Deprivation Effect in Deprived sP Rats
To further characterize the anti-alcohol effect of polymorphic Form A, this compound was evaluated on the Alcohol Deprivation Effect (ADE). […] Intake was measured 1 hour after lights off.

rats = test: Irwin's test and body temperature in rats; format: in vivo, rat
Protocol: (§1) The possible adverse effects of polymorphic Form A on the CNS, cardiovascular, respiratory and immune functions were evaluated in vitro and in vivo (rats and dogs) in different experimental models. In the in vivo tests, the tested compound was always given by single oral administration at the doses of 100, 300 and 1000 mg/kg.
Neurobehavioural effects of polymorphic Form A have been investigated according to the Irwin Test by using a standard observation battery, which allows the assessment of both peripheral and central nervous system activities (e.g. motor activity, motor co-ordination, somatic sensory/motor reflex responses, autonomic responses); body temperature was measured by means of an electronic thermometer.

[3] = system: isolated canine Purkinje fibres; test: Cardiac action potential in isolated canine Purkinje fibres
Protocol: A possible adverse effect induced by polymorphic Form A on cardiac action potential was evaluated in isolated canine Purkinje fibres. Transmembrane action potential was measured by means of the intracellular microelectrode technique; this method is recommended to detect the capacity of a substance to induce prolongation of the QT interval.

conscious dogs = test: Cardiovascular evaluation in conscious dogs (telemetry); format: in vivo, dog
Protocol: as §1
Any possible effect of polymorphic Form A administered at the doses of 100, 300 and 1000 mg/kg by oral route on blood pressure, heart rate and electrocardiogram was evaluated in conscious dogs, free to move about, previously instrumented with telemetric transmitters. In the first part of the study, only telemetric measurements were recorded; the recording of the parameters started at least 24 hours before the administration of the compound and were continued for 24 hours following dosing. In the second part, only the highest dose of 1000 mg/kg was administered and complementary investigations such as 6-lead electrocardiogram (leads I, II, III, aVL, aVR and aVF), blood sampling and observation of the animals were performed before treatment and 3 hours post-treatment.

Acute toxicity in mouse = settings: in vivo, single
Protocol: (§2) Single and repeated-dose toxicity studies in rodents and non-rodents were carried out to support the clinical trials of the test compound, i.e. polymorphic Form A. Single toxicity studies were performed in mice and rats by the intraperitoneal and the oral routes. Repeated oral studies (28 days administration followed by 14 days recovery period) were performed in rats and dogs.

Acute toxicity in rat = settings: in vivo, single
Protocol: as §2

[4] = acetic acid, pH 3, aqueous buffer, pH 3.0 (acetic acid)
[5] = alkaline phosphate buffer, pH 8, aqueous buffer, pH 8.0
[6] = buffer at pH 6.8 (buffer type not named for this pH), pH 6.8, aqueous buffer, pH 6.8
[7] = hydrochloric acid buffer, pH 1.2, simulated gastric fluid, pH 1.2
[8] = phosphate buffer, pH 3, aqueous buffer, pH 3.0 (phosphate buffer)
[9] = phosphate buffer, pH 4.6, aqueous buffer, pH 4.6
[10] = phosphate buffer, pH 6, aqueous buffer, pH 6.0
[11] = phosphate buffer, pH 7.4, aqueous buffer, pH 7.4

COCCCC(=O)NCc1ccc(C(F)(F)F)cc1 [Polymorphic Form A, N-[4-(trifluoromethyl)benzyl]-4-methoxybutyramide]
solubility at 24 h [1, 4]: 160 µg/mL (≈ 582 µM)
solubility at 30 min [1, 4]: 124 µg/mL (≈ 450 µM)
solubility at 24 h [1, 5]: 142 µg/mL (≈ 515 µM)
solubility at 30 min [1, 5]: 134 µg/mL (≈ 486 µM)
solubility at 24 h [1, 6]: 164 µg/mL (≈ 597 µM)
solubility at 30 min [1, 6]: 106 µg/mL (≈ 385 µM)
Differences in solubility / dissolution properties between the two forms ([1]; dissolution tests on each polymorph): have not shown differences in the solubility properties
solubility at 24 h [1, 7]: 160 µg/mL (≈ 580 µM)
solubility at 30 min [1, 7]: 153 µg/mL (≈ 554 µM)
solubility at 24 h [1, 8]: 151 µg/mL (≈ 548 µM)
solubility at 30 min [1, 8]: 116 µg/mL (≈ 423 µM)
solubility at 24 h [1, 9]: 145 µg/mL (≈ 528 µM)
solubility at 30 min [1, 9]: 132 µg/mL (≈ 481 µM)
solubility at 24 h [1, 10]: 140 µg/mL (≈ 508 µM)
solubility at 30 min [1, 10]: 118 µg/mL (≈ 430 µM)
solubility at 24 h [1, 11]: 140 µg/mL (≈ 508 µM)
solubility at 30 min [1, 11]: 117 µg/mL (≈ 426 µM)
solubility at 24 h ([1]; water, Water): 164 µg/mL (≈ 596 µM)
solubility at 30 min ([1]; water, Water): 138 µg/mL (≈ 501 µM)
Extra-consume of alcohol (ADE) ([2]; 5 mg/Kg): completely abolish the extra-consume of alcohol
Alcohol Deprivation Effect (ADE) ([2]; dose range 5-100 mg/Kg, given 30 min before lights off, intake 1 hour after lights off): completely suppressed ADE effect
Body temperature (rats; 100 mg/kg single oral): not affected
Spontaneous locomotor activity (Irwin test) (rats; 100 mg/kg single oral): transient decrease in spontaneous locomotor activity
Posture / neurobehavioural signs (Irwin test) (rats; 1000 mg/kg single oral, all the effects were reversible): tip toe position, ataxic and subsequently a lying recumbent or flattened position
Effect on locomotion (Irwin test) (rats; higher doses (300 and 1000 mg/kg) single oral, with myorelaxant effect and decrease in awareness): more marked and more long lasting
Body temperature (rats; higher doses (300 and 1000 mg/kg), up to four hours): significant decrease in body temperature
Action potential duration of repolarisation ([3]; 10^−4 M): significant decrease in action potential duration of repolarisation
Action potential parameters ([3]; 10^−7, 10^−6 and 10^−5 M, normal or low stimulation rates): no statistically significant effect
Early or delayed after-depolarisation ([3]; all the concentrations tested): neither early nor delayed after-depolarisation were recorded
Blood pressure, heart rate and electrocardiogram tracing (conscious dogs; 100 mg/kg oral): did not induce relevant changes
Presence in plasma (conscious dogs; 1000 mg/kg oral, 3 hours after the administration): confirmed the presence
6-lead electrocardiogram (conscious dogs; 1000 mg/kg oral, before and 3 hours after dosing): No disturbance in the 6-lead electrocardiogram
Vomiting (conscious dogs; 1000 mg/kg oral, between 0.5 and 17 hours after dosing): All animals vomited
Arterial blood pressure (mean, systolic and diastolic) (conscious dogs; 300 and 1000 mg/kg oral): slight increase in arterial blood pressure
PR and PQ interval durations (conscious dogs; 300 and 1000 mg/kg oral): slight decrease in PR and PQ interval durations
QT interval duration corrected for heart rate (Sarma's method) (conscious dogs; 300 and 1000 mg/kg oral): slight increase in QT interval duration
Electrocardiogram (lead II), T wave morphology (conscious dogs; all the doses tested): No disturbance in the electrocardiogram (lead II)
LD50 (Acute toxicity in mouse; ip, dose-range 200-1000): ~800 mg/kg
LD50 (Acute toxicity in mouse; oral, os, dose-range 2000-4000): > 4000 mg/kg
LD50 (Acute toxicity in rat; ip, dose-range 200-1000): ~800 mg/kg
LD50 (Acute toxicity in rat; oral, os, dose-range 2000-4000): > 4000 mg/kg
